What was measured:
phospho-PKCζ [1] = assay: TNF-α induced PKCζ phosphorylation in marrow stromal cells, Western blot; type: cell-based, human or mouse; details: pre-treated 3 hours, 10 ng/ml TNF-α 5 min
Protocol: FIG. 6. The effect of p62-ZZ Inhibitors on phospho-PKCζ activation by TNFα stimulated MM patient and mouse marrow stromal cells. For assay of phospho-PKCz, cells were stimulated with 10 ng/ml of TNFα for 5 min and cell lysates were collected. The phospho PKCζ was assayed by Western blot using anti-phospho PKCz anti-body (Cell Signaling). Phospho-PKCζ is an unique downstream signal activated by interactions with the p62-ZZ domain. Therefore, we examined whether p62-ZZ inhibitor #3 blocked its phosphorylation. Marrow stromal cells derived from patients with multiple myeloma or mouse stromal cells were cultured in 10% FBS IMDM and then pre-treated with various p62-ZZ inhibitors for 3 hours. For assay of phospho-PKCζ, cells were stimulated with 10 ng/ml of TNF-a for 5 min and the cell lysates were collected. Phospho PKCζ was assayed by Western blot using an anti-phospho PKCζ anti-body (Cell Signaling). TNF-α induced PKCζ phosphorylation in stromal cells was blocked when the cells were pre-treated with p62-ZZ inhibitor #3 for 3 hours.

human OCL formation = assay: Human osteoclast (OCL) formation; type: cell-based; details: various concentrations, 2 weeks, 1 ng/ml TNFα
Protocol: FIG. 7A-C: 7A. CFU-Blast colony formation. Human CD34(+) cells were cultured with p62-ZZ inhibitor #3 and 1 ng/ml of rhIL-3 IL-6 and SCF for 7 days. Data are shown as the mean±SD (n=5). FIG. 7B. Human OCL formation. Non-adherent mononuclear cells (2.5×10^7 cells/10-cm dish) derived from human bone marrow samples were cultured in α-MEM containing 10% FCS, 100 pg/ml recombinant human GM-CSF(R & D) for 7 days. Then the cells were collected and plated (cell density is 1.0×10^6 cells/nil) in α-MEM containing 20% horse serum with 1 ng/ml TNFα. Half-media changes were performed twice a week containing various concentrations of the p62-ZZ inhibitor #3. The cultures were incubated for a total of 2 weeks at 37° C. with 5% CO2 and 95% humidity. The osteoclasts were stained with the 23C6 antibody which recognizes CD51/61. Data are shown as the mean±SD (n=5). *P<0.01 compared to vehicle treated cultures. 7C. OCL formation by wild type and p62−/− mouse osteoclast precursors. Data is shown as the mean±SD (n=4). *: P<0.01 compared to no-inhibitor cultures. Whether p62-ZZ inhibitor #3 affects hematopoesis since osteoclast precursors are derived from hematopoietic cells was examined. […] Colonies were scored after 7 days of culture using an inverted microscope.

[2] = Exploratory metabolic studies
[3] = In vivo toxicity, single dose and multidose MTD study
Protocol: FIG. 10A-D: 10A. Single dose acute toxicity study by Up/Down Methods. Body weights of the mice following dosing. FIG. 10B. Mean body weights of mice during multidose MTD study. Data are shown as mean±SD for 5 mice. FIG. 10C. Median body weight of mice during multidose MTD study. FIG. 10D. Plasma concentrations p62-ZZ antagonist in pilot mice after 100 mg/kg IV.
Preliminary in vivo studies of the p62-ZZ antagonist #3 were performed 5 to determine the toxicity, multiple doses MTD and plasma concentration of the antagonist given IV. For the pilot PK study the prototype p62-ZZ antagonist (compound #3) was used as an internal standard for Mass spectroscopy assays.

phospho-PKCζ [4] = assay: TNF-α induced PKCζ phosphorylation in MM1.S cells; type: cell-based, human; details: pre-treated 3 hours
Protocol: (§1) Compound 3 was tested for its capacity to block MM-stimulated signaling in marrow stromal cells, thereby resulting in less bone destruction and MM growth. The effects of the compound 3 on GFP-labeled MM1.S myeloma cell growth with/without stromal cells, IL-6 and VCAM-1 expression on stromal cells induced by TNF-α and OCL formation, and TNF-α induced PKCζ phosphorylation, the specific kinase enzyme activated p62-ZZ, were examined. GFP-labeled MM1.S myeloma cells or normal human CFU-GM, a source of OCL precursors, were then co-cultured with human stromal cells with the p62-ZZ inhibitor. […] VCAM-1 expression and IL-6 production induced by TNF-α on stromal cells was blocked by 30% and 90% respectively compared to vehicle levels. Furthermore, TNF-α induced PKC, phosphorylation blocked was in stromal cells and MM1.S when pre-treated with this p62-ZZ inhibitory compound for 3 hours.

[5] = system: GFP-labeled human myeloma MM1.S cells; assay: GFP-labeled MM1.S myeloma cell growth with/without stromal cells, fluorescence microscopy; type: cell-based; details: 10 μM, 72 hours
Protocol: FIG. 3 is a graph depicting MM cell growth inhibition. Data is shown as the mean±SD (n=5). *: P<0.01 compared to no-inhibitor cultures without stromal cells. **: P<0.01 compared to no-treatment co-cultured with stromal cells.
as §1, with “inhibitor. The 10 μM of inhibitor compound 3 blocked MM cell growth by 90% compared to vehicle (0.1% DMSO).” for “inhibitor.”
Primary human bone marrow stromal cells were maintained in 10% FCS-IMDM. Stromal cells (1.5×10^3 cells/well) were cultured one day prior to the start of co-culture. Green fluorescent protein (GFP)-labeled human myeloma MM1.S cells (7.5×10^3 cells/well) were then cultured with/without stromal cells in the presence or absence of the p62-ZZ inhibitors (#1-6) for 72 hours. MM cell growth was determined by fluorescence microscopy.

Structure (SMILES): OCCNCc1ccc(OCc2ccccc2)c(OCc2ccccc2)c1 [Compound 3, 2-[[3,4-bis(phenylmethoxy)phenyl]methylamino]ethanol]
- TNF-α induced PKCζ phosphorylation in stromal cells (phospho-PKCζ [1]): blocked
- human OCL formation (human OCL formation): blocked human OCL formation dose dependently
- distinct peaks in metabolic studies (likely hydroxylation or glucuronidation) [2]: 3
- effect on body weight ([3]; doses up to 100 mg/kg, single dose or qdx5/day, up to 20 days): no effect
- gross pathology of brain, liver, kidney tissue ([3]; mice of the in vivo studies): no gross pathology
- TNF-α induced PKCζ phosphorylation in MM1.S (phospho-PKCζ [4]): blocked
- MM cell growth (result in words) ([5]; FIG. 3): directly blocked MM cell growth
- MM cell growth blocked compared to vehicle ([5]; vs vehicle (0.1% DMSO)): 90%
